Data published in US4543350A, “Carcinostatic agent” (Sanyo Machine Works, Ltd., priority 1982, dated 1985).
Where “and” joins values, the source holds several entries; their conditions need not be identical. Equal values may be shown once.

What was measured:
[1] = system: Colon 26 (Balb/C Colon cancer); test: Colon 26 transplanted subcutaneously to Balb/C mice: tumor weight and survival rate; format: in vivo; conditions: Colon 26 s.c. in Balb/C mice; Eisenin i.p. 5 mg per animal every other day three times
Excerpt: (§1) The animals used as experimental materials were Balb/C mice and nude mice, and the tumors used were Colon (Balb/C Colon cancer) and Sarcoma 180.
a. 1,000,000 Cells of Colon 26 were transplanted subcutaneously to Balb/C mice.

[2] = Effective dosage estimated from the various test results; format: in vivo; conditions: average body weight of Balb/C mice taken as 20 g
Water solubility = format: physicochemical
Sarcoma 180 = Sarcoma 180 transplanted subcutaneously to Balb/C mice: tumor weight; format: in vivo; conditions: Sarcoma 180 s.c. in Balb/C mice; Eisenin i.p. and orally 5 mg per animal every other day three times
Excerpt: as §1

Balb/C mice = test: Acute toxicity test; format: in vivo; conditions: for No. of Death: 9 Balb/C mice
[3] = system: BW 5174 (thymoma of AKR mouse); test: Cytotoxicity test (51Cr release) of spleen and intraperitoneal cells of Eisenin-administered mice; format: cell-based
Excerpt: Further, the target cell employed was BW 5174 (thymoma of AKR mouse). The spleen cells and the intraperitoneal cells were respectively divided into the adherent cells and the non-adherent cells, and cytotoxicity was examined in each case.
(1) Percent Cytotoxicity (%) in Table 3 is based on the following
(2) Measurement is made by ^51 Cr release assay. (3) Acute Toxicit

Colon 26 = test: Sensitivity test: inclusion of tritium thymidine, uridine and leucine into cultured Colon 26; format: cell-based; conditions: for Average Counts per Minute, Leucine / Counts per Minute in the Case of Leucine: leucine (protein); for Average Counts per Minute, Leucine / Counts per Minute in the Case of Leucine / Average Counts per Minute, Tritium Thymidine / Counts per Minute in the Case of Tritium Thymidine / Average Counts per Minute, Uridine / Counts per Minute in the Case of Uridine: 3 days; for Counts per Minute in the Case of Leucine / Counts per Minute in the Case of Tritium Thymidine / Counts per Minute in the Case of Uridine: single counts; for Average Counts per Minute, Tritium Thymidine / Counts per Minute in the Case of Tritium Thymidine: tritium thymidine (DNA); for Average Counts per Minute, Uridine / Counts per Minute in the Case of Uridine: uridine (RNA)
Procedure: (1) Inhibition Index (I.I.) is calculated from the following equation, an
where I.I. exceeds 75%, it is judged effective.
- (2) Measurement is made on a scintillation counter.

L-Pyroglu-L-Gln-L-Ala [Eisenin]
anti-tumor effect (weight of the tumor, survival rate; FIG. 1, FIG. 2) [1]: an anti-tumor effect of Eisenin is recognized | effective dosage as estimated from the test results [2]: about 15 mg per 20 g | solubility in water (Water solubility): water soluble | anti-tumor effect (weight of the tumor; FIG. 5) (Sarcoma 180): a similar anti-tumor effect is recognized | No. of Death (Balb/C mice; Eisenin 3 g/kg intraperitoneally): 1/9 | No. of Death (Balb/C mice; Eisenin 6 g/kg intraperitoneally): 7/9 | LD50 (Balb/C mice; intraperitoneal, Balb/C mice): ~5000 mg/kg | difference in cytotoxicity versus control group, intraperitoneal cells [3]: a significant difference | direct effect on tumor cells (sensitivity test; I.I. above 75% is judged effective) (Colon 26; Colon 26 culture, all concentrations and labels): no direct effect of Eisenin on tumor cells | Average Counts per Minute, Leucine (Colon 26; Eisenin 0.0001 mg/ml): 12232 CPM | Counts per Minute in the Case of Leucine (Colon 26; Eisenin 0.0001 mg/ml): 12952 CPM and 11936 CPM and 11808 CPM and 10952 CPM | Average Counts per Minute, Leucine (Colon 26; Eisenin 0.001 mg/ml): 13743 CPM | Counts per Minute in the Case of Leucine (Colon 26; Eisenin 0.001 mg/ml): 13620 CPM and 14230 CPM and 13379 CPM and 11355 CPM | Average Counts per Minute, Leucine (Colon 26; Eisenin 0.01 mg/ml): 11478 CPM | Counts per Minute in the Case of Leucine (Colon 26; Eisenin 0.01 mg/ml): 12285 CPM and 11020 CPM and 12097 CPM and 11318 CPM | Average Counts per Minute, Leucine (Colon 26; Eisenin 0.1 mg/ml): 11318 CPM | Counts per Minute in the Case of Leucine (Colon 26; Eisenin 0.1 mg/ml): 13311 CPM and 12566 CPM and 8076 CPM and 7076 CPM | Average Counts per Minute, Leucine (Colon 26; Eisenin 1.0 mg/ml): 6521 CPM | Counts per Minute in the Case of Leucine (Colon 26; Eisenin 1.0 mg/ml): 6826 CPM and 6150 CPM and 6587 CPM | Average Counts per Minute, Tritium Thymidine (Colon 26; Eisenin 0.0001 mg/ml): 229878 CPM | Counts per Minute in the Case of Tritium Thymidine (Colon 26; Eisenin 0.0001 mg/ml): 231236 CPM and 219336 CPM and 224786 CPM and 233612 CPM | Average Counts per Minute, Tritium Thymidine (Colon 26; Eisenin 0.001 mg/ml): 218332 CPM | Counts per Minute in the Case of Tritium Thymidine (Colon 26; Eisenin 0.001 mg/ml): 220010 CPM and 213816 CPM and 221170 CPM and 213017 CPM | Average Counts per Minute, Tritium Thymidine (Colon 26; Eisenin 0.01 mg/ml): 238823 CPM | Counts per Minute in the Case of Tritium Thymidine (Colon 26; Eisenin 0.01 mg/ml): 207474 CPM and 229569 CPM and 240628 CPM and 246273 CPM | Average Counts per Minute, Tritium Thymidine (Colon 26; Eisenin 0.1 mg/ml): 198381 CPM | Counts per Minute in the Case of Tritium Thymidine (Colon 26; Eisenin 0.1 mg/ml): 190120 CPM and 203872 CPM and 201151 CPM and 223845 CPM | Average Counts per Minute, Tritium Thymidine (Colon 26; Eisenin 1.0 mg/ml): 170297 CPM | Counts per Minute in the Case of Tritium Thymidine (Colon 26; Eisenin 1.0 mg/ml): 140430 CPM and 171170 CPM and 163554 CPM and 176167 CPM | Average Counts per Minute, Uridine (Colon 26; Eisenin 0.0001 mg/ml): 30793 CPM | Counts per Minute in the Case of Uridine (Colon 26; Eisenin 0.0001 mg/ml): 32836 CPM and 29585 CPM and 24135 CPM and 29958 CPM | Average Counts per Minute, Uridine (Colon 26; Eisenin 0.001 mg/ml): 31169 CPM | Counts per Minute in the Case of Uridine (Colon 26; Eisenin 0.001 mg/ml): 39415 CPM and 31675 CPM and 28671 CPM and 33161 CPM | Average Counts per Minute, Uridine (Colon 26; Eisenin 0.01 mg/ml): 33039 CPM | Counts per Minute in the Case of Uridine (Colon 26; Eisenin 0.01 mg/ml): 37043 CPM and 33211 CPM and 31498 CPM and 34408 CPM | Average Counts per Minute, Uridine (Colon 26; Eisenin 0.1 mg/ml): 25426 CPM | Counts per Minute in the Case of Uridine (Colon 26; Eisenin 0.1 mg/ml): 32774 CPM and 25271 CPM and 24222 CPM and 26786 CPM | Average Counts per Minute, Uridine (Colon 26; Eisenin 1.0 mg/ml): 21107 CPM | Counts per Minute in the Case of Uridine (Colon 26; Eisenin 1.0 mg/ml): 27088 CPM and 20903 CPM and 19954 CPM and 22463 CPM
